The target of one assay is AaegOR9 (Aedes aegypti, UniProt Q177X5). The experiment in a line: Two-electrode voltage clamp of Xenopus oocytes expressing AaegOR9-ORco (tuning curve and concentration-response). It counts as cell-based. The following applies: for Rank according to potency (No.): AaegOR9 tuning curve of Figure 1, 500 nM, 1 = most potent of 31; for Ligand potency in AaegOR9 tuning curve (in words): 500 nM odorant, panel of 31 indole derivatives. The protocol:
The methodologies and protocols have been described in details elsewhere (Bohbot and Dickens, [2009]). AaegOr9 and Aaeg-ORco cRNAs (Bohbot et al., [2011]) were synthesized from linearized pSP64DV expression vectors using the mMESSAGE mMACHINE® SP6 kit (Life Technologies). Stage V-VII oocytes were harvested from Xenopus laevis females, mechanically separated, treated with collagenase (8 mg/mL, 30 min, 18°C) and rinsed in washing solution (96 mM NaCl, 2 mM KCl, 5 mM MgCl2 and 5 mM HEPES, pH 7.6). Oocytes were microinjected with 27.6 ng AaegOr9 and AaegORco cRNAs, incubated at 18°C for 3–4 days in ND96 solution (96 mM NaCl, 2 mM KCl, 5 mM MgCl2, 0.8 mM CaCl2 and 5 mM HEPES, pH 7.6), supplemented with 5% dialyzed horse serum, 50 μg/mL tetracycline, 100 μg/mL streptomycin and 550 μg/mL sodium pyruvate. Whole-cell currents were recorded using the two-microelectrode voltage-clamp technique. During recording sessions, the holding potential was maintained at −80 mV using an OC-725C oocyte clamp (Warner Instruments, LLC, Hamden, CT, USA). Oocytes placed in a RC-3Z oocyte recording chamber (Warner Instruments, LLC, Hamden, CT, USA) were exposed to odorants for 8 s. Current was allowed to return to baseline between odorant applications. Data acquisition and concentration-response analyses were carried out with a Digidata 1550A and the pCLAMP10 software (Molecular Devices, Sunnyvale, CA, USA), and analyzed using GraphPad Prism 7 (GraphPad Software Inc., La Jolla, CA, USA). Stock concentration of odorants (10^−2 M) were dissolved in ringer solution containing 2% dimethyl sulfoxide (DMSO) in order to solubilize the hydrophobic indolic compounds.
The response profile was established using multiple sessions, each including six compounds at a time and indole as an internal reference. […] All the response values were normalized to the indole reference in each recording session (Supplementary Figure 1).
For the establishment of the concentration-response curves, oocytes were exposed to increasing concentrations of indole, skatole and indole-3-carboxaldehyde (I3C; Supplementary Figure 2). Quantitative characterization of OR sensitivity was estimated using the averaged effective concentration at 50% of the maximal response (EC50) over the sample population. The data to establish the concentration response curve and EC50 of AaegOR10-skatole was extracted from a previous study (Bohbot and Dickens, [2012]).
We also included indole and skatole as references (Bohbot et al., [2011]). The screen was carried out using a low odorant concentration (500 nM) in order to mitigate the caveats associated with high ligand concentrations, including receptor adaptation, antagonist effects and technical artifacts such as broad molecular receptive ranges (Bohbot and Pitts, [2015]).
In general terms: Two-electrode voltage clamp is typically applied to oocytes expressing channels or transporters.

In another assay the test system is OR11-ORco. More on the design: method as in Wanner et al., 2007. The following applies: Apis mellifera OR11-ORco; pheromone receptor; ref Wanner et al., 2007; cited from earlier work.
A further assay deals with OR10-ORco. More on the design: method as in Xu et al., 2012. To be noted: Amyelois transitella OR10-ORco; pheromone receptor; ref Xu et al., 2012; cited from earlier work.
For assay [1], the system named is OR13-ORco. More on the design: method as in Wang et al., 2011. The following applies: Heliothis virescens OR13-ORco; pheromone receptor; ref Wang et al., 2011; cited from earlier work.
In assay [2] the test system is OR01-ORco. More on the design: method as in Xu et al., 2012. The following applies: Bombyx mori OR01-ORco; pheromone receptor; ref Xu et al., 2012; cited from earlier work.
In assay [3] the test system is OR13-ORco. More on the design: method as in Liu et al., 2013. The following applies: Helicoverpa armigera OR13-ORco; pheromone receptor; ref Liu et al., 2013; cited from earlier work.
Assay [4] relates to OR01-ORco. More on the design: method as in Mitsuno et al., 2008. The following applies: Plutella xyllostella OR01-ORco; pheromone receptor; ref Mitsuno et al., 2008; cited from earlier work.
The subject of assay [5] is OR03-ORco. More on the design: method as in Liu et al., 2014. The following applies: Spodoptera exigua OR03-ORco; kairomone receptor; ref Liu et al., 2014; cited from earlier work.
The test system of a further assay is OR65-ORco. More on the design: method as in Wang et al., 2010. To be noted: Anopheles gambiae OR65-ORco; kairomone receptor; ref Wang et al., 2010; cited from earlier work.
A further assay deals with OR08-ORco. More on the design: method as in Bohbot et al., 2009. To be noted: Aedes aegypti OR08-ORco; kairomone receptor; ref Bohbot et al., 2009; cited from earlier work.
The subject of another assay is OR12-ORco. More on the design: method as in Zhang et al., 2013. To be noted: Spodoptera litura OR12-ORco; kairomone receptor; ref Zhang et al., 2013; cited from earlier work.
For another assay, the system named is OR04-ORco. More on the design: method as in Sun et al., 2013. The following applies: Plutella xyllostella OR04-ORco; pheromone receptor; ref Sun et al., 2013; cited from earlier work.
The subject of the next assay is OR56-ORco. More on the design: method as in Tanaka et al., 2009. To be noted: Bombyx mori OR56-ORco; kairomone receptor; ref Tanaka et al., 2009; cited from earlier work.
Assay [6] deals with OR03-ORco. More on the design: method as in Leary et al., 2012. The following applies: Ostrinia furnacalis OR03-ORco; pheromone receptor; ref Leary et al., 2012; cited from earlier work.
Another assay concerns OR06-Orco. More on the design: method as in Wanner et al., 2010. To be noted: Ostrinia nubilalis OR06-Orco; pheromone receptor; ref Wanner et al., 2010; cited from earlier work.

Each structure is given as a SMILES string. Where a name gives a salt, the structure may show the parent alone. Read-outs that look alike come from different tables or passages of the source.

AaegOR9, sequence (Q178U6 whole entry): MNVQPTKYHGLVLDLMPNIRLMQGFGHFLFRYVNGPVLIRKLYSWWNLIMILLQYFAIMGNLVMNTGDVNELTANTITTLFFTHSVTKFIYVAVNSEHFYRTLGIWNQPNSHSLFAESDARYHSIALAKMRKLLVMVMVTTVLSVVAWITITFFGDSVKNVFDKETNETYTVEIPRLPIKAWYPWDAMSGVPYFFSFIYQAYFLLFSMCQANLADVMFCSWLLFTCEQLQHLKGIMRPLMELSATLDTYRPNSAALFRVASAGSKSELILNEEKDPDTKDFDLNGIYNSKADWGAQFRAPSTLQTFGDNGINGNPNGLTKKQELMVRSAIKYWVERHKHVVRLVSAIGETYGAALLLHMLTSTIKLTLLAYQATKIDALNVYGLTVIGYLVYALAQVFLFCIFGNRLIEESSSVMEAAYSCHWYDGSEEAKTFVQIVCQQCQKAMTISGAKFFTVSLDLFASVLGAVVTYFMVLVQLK
AaegOR9, sequence (Q177X5 entry or part of it): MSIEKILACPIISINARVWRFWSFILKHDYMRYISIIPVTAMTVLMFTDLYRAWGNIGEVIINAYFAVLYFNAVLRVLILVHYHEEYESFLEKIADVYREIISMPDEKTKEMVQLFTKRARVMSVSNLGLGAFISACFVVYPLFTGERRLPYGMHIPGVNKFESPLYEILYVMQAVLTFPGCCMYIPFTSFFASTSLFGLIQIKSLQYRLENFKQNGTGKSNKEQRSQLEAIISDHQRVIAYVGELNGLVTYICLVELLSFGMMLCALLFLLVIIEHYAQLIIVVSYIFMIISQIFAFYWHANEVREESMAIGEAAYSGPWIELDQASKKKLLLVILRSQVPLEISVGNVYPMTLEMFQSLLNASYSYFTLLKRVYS

`COC(=O)Cc1c[nH]c2ccccc12` [Methyl indole-3-acetate]: at AaegOR9, the “Rank according to potency (No.)” value is 25. With `CC(=O)CCCCCC=CC(=O)O` [9-oxo-2-decenoic acid], the concentration for a half-maximal effect (EC50) (commonly the concentration giving half of the maximal effect) with OR11-ORco was 280 nM.

As to `N#CCc1c[nH]c2ccccc12` [3-indole acetonitrile], on AaegOR9, the “Ligand potency in AaegOR9 tuning curve (in words)” value (from here on “Ligand potency”) is reported as “next most potent ligands” and the “Rank according to potency (No.)” value came to 4. In the case of `O=C(O)CCCc1c[nH]c2ccccc12` [Indole-3-butyric acid], at AaegOR9, the “Rank according to potency (No.)” value worked out at 22.

As for `COC(=O)c1c[nH]c2ccccc12` [Methyl indole-3-carboxylate], at AaegOR9, the “Ligand potency” value is “next most potent ligands” and the “Rank according to potency (No.)” value was determined as 5. Taken in the same sequence, the figures for `O=Cc1c[nH]c2ccccc12` [I3C, indole-3-carboxaldehyde] were “next most potent ligands” and 2.

For the compound `NCCc1c[nH]c2ccccc12` [Tryptamine], at AaegOR9, the “Rank according to potency (No.)” value came out at 24. The same measure, in the same setting: then `O=C1Cc2ccccc2N1` [2-Oxindole], with 10; and `Cc1nccc2c1[nH]c1ccccc12` [Harmane], with 6.

For the compound `CC/C=C\C=C/CCCCCCCCCC=O` [Z1 1Z13-16:Ald], the EC50 in the assay on OR10-ORco is 499 nM.

In the case of `O=C(O)c1c[nH]c2ccccc12` [Indole-3-carboxylic acid], the “Rank according to potency (No.)” value at AaegOR9 was found to be 11. For the compound `Oc1ccc2[nH]ccc2c1` [5-Hydroxyindole], the “Rank according to potency (No.)” value on AaegOR9 is recorded as 9. The same measure, in the same setting: then `COc1ccc2c3c([nH]c2c1)C(C)=NCC3` [Harmaline], with 20; and `Oc1cccc2[nH]ccc12` [4-Hydroxyindole], with 7. As to `CCCC/C=C\CCCCCCCC=O` [Z9-14:Ald], in the assay on OR13-ORco [1], the EC50 is 240 nM. `O=C1Nc2ccccc2C1=O` [Isatin]: the “Rank according to potency (No.)” value at AaegOR9 was 16. Regarding `CN(C)Cc1c[nH]c2ccccc12` [Gramine], at AaegOR9, the “Ligand potency” value is reported as “among the least potent ligands” and the “Rank according to potency (No.)” value is listed as 27.

For `NCCc1c[nH]c2ccc(O)cc12` [Serotonin], the “Rank according to potency (No.)” value at AaegOR9 turned out to be 29.

For `OCCc1c[nH]c2ccccc12` [3-(2-Hydroxyethyl) indole], the “Rank according to potency (No.)” value at AaegOR9 is listed as 12. The same measure, in the same setting: the value for `C[C@H](NC(=O)Cc1c[nH]c2ccccc12)C(=O)O` [Indole-3-acetyl-L-alanine] was 17.

In the case of `CCC/C=C\C=C\CCCCCCCCCO` [E10,Z12-16:OH (Bombykol), Bombykol], the EC50 in the assay on OR01-ORco [2] is 45.4 nM. With `ON=CCc1c[nH]c2ccccc12` [Indole-3-acetaldoxime], the “Rank according to potency (No.)” value on AaegOR9 is given as 21.

In the case of `CCCC/C=C\CCCCCCCCCC=O` [Z1 1-16:Ald], the EC50 was 3400 nM in the assay with OR13-ORco [3], 880 nM in the assay with OR01-ORco [4] and 367 nM in the assay with OR13-ORco [1].

With `O=S(=O)(O)Oc1c[nH]c2ccccc12` [Indoxyl sulfate potassium salt], the “Rank according to potency (No.)” value on AaegOR9 is 30.

With `O=C(O)C=Cc1c[nH]c2ccccc12` [3-Indoleacrylic acid], the “Rank according to potency (No.)” value on AaegOR9 stood at 18.

Turning to `NC(=O)Cc1c[nH]c2ccccc12` [Indole-3-acetamide], the “Rank according to potency (No.)” value at AaegOR9 came out at 23.

For the compound `C=CC(=C)CC/C=C(\C)CCC=C(C)C` [E-b-farnesene], the half-maximal effective concentration (EC50) with OR03-ORco [5] was 300 nM. Take `O=C(O)CCc1c[nH]c2ccccc12` [Indole-3-propionic acid]: the “Rank according to potency (No.)” value on AaegOR9 came out at 15. On to `C=CCc1ccc(O)c(OC)c1` [Eugenol], for which the 50% effective concentration (EC50) in the assay with OR65-ORco was 222 nM.

Take `c1ccc2c(c1)[nH]c1cnccc12` [Norharmane]: the “Rank according to potency (No.)” value at AaegOR9 was determined as 13. Take `C=C[C@H](O)CCCCC` [(R)-(−)-1-octen-3-ol]: in the assay with OR08-ORco, the EC50 was 158 nM. `CC/C=C\CCOC(C)=O` [Z3-6:OAc]: in the assay with OR12-ORco, the EC50 was 339 nM.

As for `O=C1/C(=C2\Nc3ccccc3C2=O)Nc2ccccc21` [Indigo], the “Rank according to potency (No.)” value at AaegOR9 was 26.

Regarding `COc1ccc2[nH]c3c(c2c1)CCNC3` [Pinoline], the “Rank according to potency (No.)” value on AaegOR9 was 31. As for `CCCC/C=C\CCCCCCCCOC(C)=O` [Z9-14: OAc], the half-maximal effective concentration (EC50) in the assay with OR04-ORco is 243 nM. For `CC/C=C\CC1=C(C)CCC1=O` [Z-jasmone], in the assay on OR56-ORco, the EC50 was 6000 nM.

With `c1ccc2c(Cc3c[nH]c4ccccc34)c[nH]c2c1` [3,3’-Diindolemethane], the “Rank according to potency (No.)” value on AaegOR9 worked out at 8.

With `c1ccc2ncccc2c1` [Quinoline], the “Rank according to potency (No.)” value at AaegOR9 is on record as 14. Take `OCc1c[nH]c2ccccc12` [Indole-3-carbinole]: on AaegOR9, the “Ligand potency” value is reported as “among the least potent ligands” and the “Rank according to potency (No.)” value worked out at 19. In the case of `CC/C=C\CCCCCCCCCCOC(C)=O` [Z1 1-14:OAc], the results for the 50% effective concentration (EC50) in the assay with OR03-ORco [6] and with OR06-Orco were 25 nM and 860 nM, respectively. `O=C(O)Cc1c[nH]c2ccccc12` [3-Indole acetic acid]: at AaegOR9, the “Rank according to potency (No.)” value was 28.

(Values after publication PMC6353850, “Supersensitive Odorant Receptor Underscores Pleiotropic Roles of Indoles in Mosquito Ecology” (Frontiers in Cellular Neuroscience, 2019).)
